Results from ChEMBL document CHEMBL3885861, “Open TG-GATES”.

Species on record: Rattus norvegicus
Test: Open TG-GATES - Regimen: Single
Assay type: toxicity, organism-based, Sprague-Dawley
Parameters: regimen Single, gender Male, age 6 weeks
Settings: in vivo, po, 100 mg/kg, route gavage, dose level Low; for APTT / Bas / Eos / Fbg / Hb / Ht / Lym / MCH / MCHC / MCV / Mono / Neu / PT / Plat / RBC / Ret / WBC: tissue Blood; for KIDNEY_L / KIDNEY_R / KIDNEY_TOTAL: tissue Kidney; for LIVER: tissue Liver; for A/G / ALP / ALT / AST / BUN / CRE / Ca / Cl / DBIL / GLC / IP / K / LDH / Na / PL / RALB / TBIL / TC / TG / TP / gamma-GTP: tissue Plasma

CCCCNC(=O)NS(=O)(=O)c1ccc(C)cc1 [TOLBUTAMIDE]
TERMINAL_BW (3 h): 205.3 g | APTT (3 h): 21 s | Bas (3 h): 0% | Eos (3 h): 1% | Fbg (3 h): 274.2 mg/dL | Hb (3 h): 13.4 g/dL | Ht (3 h): 41.4% | Lym (3 h): 73% | MCH (3 h): 20.9 pg | MCHC (3 h): 32.3% | MCV (3 h): 64.7 fL | Mono (3 h): 3.4% | Neu (3 h): 21.8% | PT (3 h): 13.2 s | Plat (3 h): 122.1 x10_4/uL | RBC (3 h): 641 x10_4/ul | Ret (3 h): 8.8% | WBC (3 h): 90.7 x10_2/uL | KIDNEY_L (3 h): 1 g | KIDNEY_R (3 h): 1 g | KIDNEY_TOTAL (3 h): 2 g | LIVER (3 h): 9.2 g | A/G (3 h): 0.9 | ALP (3 h): 1360.8 IU/L | ALT (3 h): 49 IU/L | AST (3 h): 92 IU/L | BUN (3 h): 10.8 mg/dL | CRE (3 h): 0.2 mg/dL | Ca (3 h): 10.8 mg/dL | Cl (3 h): 106.2 meq/L | DBIL (3 h): 0.004 mg/dL | GLC (3 h): 156.2 mg/dL | IP (3 h): 8.5 mg/dL | K (3 h): 4 meq/L | LDH (3 h): 63.6 IU/L | Na (3 h): 141.4 meq/L | PL (3 h): 129 mg/dL | RALB (3 h): 2.5 g/dL | TBIL (3 h): 0.058 mg/dL | TC (3 h): 73.4 mg/dL | TG (3 h): 48 mg/dL | TP (3 h): 5.3 g/dL | gamma-GTP (3 h): 1.2 IU/L | TERMINAL_BW (6 h): 204.4 g | APTT (6 h): 16.5 s | Bas (6 h): 0% | Eos (6 h): 1% | Fbg (6 h): 278.2 mg/dL | Hb (6 h): 13.5 g/dL | Ht (6 h): 41.6% | Lym (6 h): 75% | MCH (6 h): 20.9 pg | MCHC (6 h): 32.3% | MCV (6 h): 64.8 fL | Mono (6 h): 2.2% | Neu (6 h): 20.4% | PT (6 h): 13.2 s | Plat (6 h): 124.3 x10_4/uL | RBC (6 h): 642.6 x10_4/ul | Ret (6 h): 9.1% | WBC (6 h): 98.3 x10_2/uL | KIDNEY_L (6 h): 0.9 g | KIDNEY_R (6 h): 0.9 g | KIDNEY_TOTAL (6 h): 1.8 g | LIVER (6 h): 8.8 g | A/G (6 h): 0.9 | ALP (6 h): 1403.8 IU/L | ALT (6 h): 40.4 IU/L | AST (6 h): 71.8 IU/L | BUN (6 h): 10.4 mg/dL | CRE (6 h): 0.2 mg/dL | Ca (6 h): 10.9 mg/dL | Cl (6 h): 106.8 meq/L | DBIL (6 h): 0.006 mg/dL | GLC (6 h): 137.4 mg/dL | IP (6 h): 9.8 mg/dL | K (6 h): 3.9 meq/L | LDH (6 h): 50.2 IU/L | Na (6 h): 141.8 meq/L | PL (6 h): 134 mg/dL | RALB (6 h): 2.5 g/dL | TBIL (6 h): 0.06 mg/dL | TC (6 h): 72.4 mg/dL | TG (6 h): 64.2 mg/dL | TP (6 h): 5.2 g/dL | gamma-GTP (6 h): 1.2 IU/L | TERMINAL_BW (9 h): 201.2 g | APTT (9 h): 16.5 s | Bas (9 h): 0% | Eos (9 h): 1.2% | Fbg (9 h): 288.4 mg/dL | Hb (9 h): 13.6 g/dL | Ht (9 h): 41.6% | Lym (9 h): 72.6% | MCH (9 h): 20.9 pg | MCHC (9 h): 32.7% | MCV (9 h): 63.9 fL | Mono (9 h): 1.6% | Neu (9 h): 24% | PT (9 h): 13.5 s | Plat (9 h): 122.2 x10_4/uL | RBC (9 h): 650.4 x10_4/ul | Ret (9 h): 8.3% | WBC (9 h): 89.4 x10_2/uL | KIDNEY_L (9 h): 0.9 g | KIDNEY_R (9 h): 0.9 g | KIDNEY_TOTAL (9 h): 1.8 g | LIVER (9 h): 7.9 g | A/G (9 h): 0.9 | ALP (9 h): 1515.4 IU/L | ALT (9 h): 39.2 IU/L | AST (9 h): 80.4 IU/L | BUN (9 h): 10 mg/dL | CRE (9 h): 0.2 mg/dL | Ca (9 h): 10.7 mg/dL | Cl (9 h): 107.4 meq/L | DBIL (9 h): 0.002 mg/dL | GLC (9 h): 158.2 mg/dL | IP (9 h): 9.7 mg/dL | K (9 h): 4.1 meq/L | LDH (9 h): 66.6 IU/L | Na (9 h): 142.4 meq/L | PL (9 h): 122.8 mg/dL | RALB (9 h): 2.5 g/dL | TBIL (9 h): 0.064 mg/dL | TC (9 h): 69.4 mg/dL | TG (9 h): 34.6 mg/dL | TP (9 h): 5.2 g/dL | gamma-GTP (9 h): 1 IU/L | TERMINAL_BW (24 h): 220.2 g | APTT (24 h): 17.7 s | Bas (24 h): 0.2% | Eos (24 h): 1% | Fbg (24 h): 273.6 mg/dL | Hb (24 h): 13.3 g/dL | Ht (24 h): 41% | Lym (24 h): 80.4% | MCH (24 h): 20.8 pg | MCHC (24 h): 32.5% | MCV (24 h): 64.1 fL | Mono (24 h): 2.4% | Neu (24 h): 15.4% | PT (24 h): 12.9 s | Plat (24 h): 129 x10_4/uL | RBC (24 h): 640.4 x10_4/ul | Ret (24 h): 7.7% | WBC (24 h): 82.4 x10_2/uL | KIDNEY_L (24 h): 1 g | KIDNEY_R (24 h): 1 g | KIDNEY_TOTAL (24 h): 2 g | LIVER (24 h): 10.2 g | A/G (24 h): 0.9 | ALP (24 h): 1457.6 IU/L | ALT (24 h): 46.4 IU/L | AST (24 h): 73 IU/L | BUN (24 h): 14.6 mg/dL | CRE (24 h): 0.2 mg/dL | Ca (24 h): 11.2 mg/dL | Cl (24 h): 104.4 meq/L | DBIL (24 h): 0.008 mg/dL | GLC (24 h): 174.6 mg/dL | IP (24 h): 8.7 mg/dL | K (24 h): 4.2 meq/L | LDH (24 h): 69 IU/L | Na (24 h): 142 meq/L | PL (24 h): 148.2 mg/dL | RALB (24 h): 2.5 g/dL | TBIL (24 h): 0.066 mg/dL | TC (24 h): 80.6 mg/dL | TG (24 h): 70.8 mg/dL | TP (24 h): 5.3 g/dL | gamma-GTP (24 h): 1.2 IU/L
